From patent publication US10807992B2, “Single enantiomer antiparasitic compounds” (priority 2017, dated 2020)
Read-outs that look alike come from different tables or passages of the source.

System: Aedes aegypti
Test: In vitro contact activity against adult mosquitoes (coated vial)
Description: Aedes aegypti (Louisiana Biologicals Inc., New Orleans, La.) eggs were allowed to hatch, close, and age between 3-5 days in an environmental chamber at 26° C., 80% humidity with light/dark cycles.
For mosquito assays, an aliquot from each compound stock was added to an acetone/triton solution to achieve the desired top doses for the study. Serial dilutions were conducted from the top dose (i.e. 50 ppm) to achieve the desired titration range for EC50 and EC90 determination. The final DMSO concentration in each test vial was 0.5%. A 459 μL aliquot of each compound formulation was transferred to a vial and vials were immediately placed on an unheated roller unit to allow for an even coating of the vial walls. The vials were loosely capped and allowed to dry for a minimum of four hours in a chemical fume hood.
For both contact and ingestion assays, five female Aedes aegypti adults were added to each vial or cage. The test vials for contact assays were held in an environmental chamber at 24° C., 80% humidity with light/dark cycles (12 hours each). The cages for mosquito ingestion assays were held in a temperature-controlled artificial feeding apparatus to allow continual access to organic bovine blood containing the desired concentration of compound. Fresh aliquots of compound-spiked bovine blood were provided daily for the duration of the study.
Mosquitoes showing no movement or mosquitoes that were knocked down were noted as dead. Results from trial 1 and trial 2 contact assays are shown in Tables 12 and 13, respectively and the results from trial 3 mosquito ingestion assay is shown in table 14.
For the mosquito contact and ingestion assays, each replicate contained 5 mosquitoes. For ease of calculation, the two replicates were added to equal a total of 10 mosquitoes.

O=C(CC(F)(F)F)N1CC2(C1)OCc1cc(C3=NS[C@@](c4cc(Cl)c(F)c(Cl)c4)(C(F)(F)F)C3)ccc12 [C1 (S) enantiomer, (S)-1-[6-[5-(3,5-dichloro-4-fluoro-phenyl)-5-(trifluoromethyl)-4H-isothiazol-3-yl]spiro[1H-isobenzofuran-3,3′-azetidine]-1′-yl]-3,3,3-trifluoro-propan-1-one]
90%: mortality at 0.2 µM (48 h, read-out: % Mortality R1 + R2, Trial 2, contact assay, dose 0.20 μM, 48 hr)
10%: mortality at 12.5 µM (6 h, read-out: % Mortality R1 + R2, Trial 2, contact assay, dose 12.5 μM, 6 hr) | mortality at 3.125 µM (12 h, read-out: % Mortality R1 + R2, Trial 1, contact assay, dose 3.125 μM, 12 hr) | mortality at 0.2 µM (12 h, read-out: % Mortality R1 + R2, Trial 2, contact assay, dose 0.20 μM, 12 hr) | mortality at 0.2 µM (48 h, read-out: % Mortality R1 + R2, Trial 1, contact assay, dose 0.20 μM, 48 hr) | mortality at 0.78 µM (48 h, read-out: % Mortality R1 + R2, Trial 1, contact assay, dose 0.78 μM, 48 hr)
70%: mortality at 12.5 µM (12 h, read-out: % Mortality R1 + R2, Trial 1, contact assay, dose 12.5 μM, 12 hr)
60%: mortality at 3.125 µM (24 h, read-out: % Mortality R1 + R2, Trial 1, contact assay, dose 3.125 μM, 24 hr)
30%: mortality at 12.5 µM (6 h, read-out: % Mortality R1 + R2, Trial 1, contact assay, dose 12.5 μM, 6 hr) | mortality at 0.2 µM (24 h, read-out: % Mortality R1 + R2, Trial 2, contact assay, dose 0.20 μM, 24 hr)
0%: mortality at 0.049 µM (0.5 h, read-out: % Mortality R1 + R2, Trial 1, contact assay, dose 0.049 μM, 0.5 Hr) | mortality at 0.2 µM (0.5 h, read-out: % Mortality R1 + R2, Trial 1, contact assay, dose 0.20 μM, 0.5 Hr) | mortality at 0.78 µM (0.5 h, read-out: % Mortality R1 + R2, Trial 1, contact assay, dose 0.78 μM, 0.5 Hr) | mortality at 3.125 µM (0.5 h, read-out: % Mortality R1 + R2, Trial 1, contact assay, dose 3.125 μM, 0.5 Hr) | mortality at 12.5 µM (0.5 h, read-out: % Mortality R1 + R2, Trial 1, contact assay, dose 12.5 μM, 0.5 Hr) | mortality at 50 µM (0.5 h, read-out: % Mortality R1 + R2, Trial 1, contact assay, dose 50 μM, 0.5 Hr) | mortality at 0.049 µM (0.5 h, read-out: % Mortality R1 + R2, Trial 2, contact assay, dose 0.049 μM, 0.5 Hr) | mortality at 0.2 µM (0.5 h, read-out: % Mortality R1 + R2, Trial 2, contact assay, dose 0.20 μM, 0.5 Hr) | mortality at 0.78 µM (0.5 h, read-out: % Mortality R1 + R2, Trial 2, contact assay, dose 0.78 μM, 0.5 Hr) | mortality at 3.125 µM (0.5 h, read-out: % Mortality R1 + R2, Trial 2, contact assay, dose 3.125 μM, 0.5 Hr) | mortality at 12.5 µM (0.5 h, read-out: % Mortality R1 + R2, Trial 2, contact assay, dose 12.5 μM, 0.5 Hr) | mortality at 50 µM (0.5 h, read-out: % Mortality R1 + R2, Trial 2, contact assay, dose 50 μM, 0.5 Hr) | mortality at 0.049 µM (1 h, read-out: % Mortality R1 + R2, Trial 1, contact assay, dose 0.049 μM, 1 hr) | mortality at 0.2 µM (1 h, read-out: % Mortality R1 + R2, Trial 1, contact assay, dose 0.20 μM, 1 hr) | mortality at 0.78 µM (1 h, read-out: % Mortality R1 + R2, Trial 1, contact assay, dose 0.78 μM, 1 hr) | mortality at 3.125 µM (1 h, read-out: % Mortality R1 + R2, Trial 1, contact assay, dose 3.125 μM, 1 hr) | mortality at 12.5 µM (1 h, read-out: % Mortality R1 + R2, Trial 1, contact assay, dose 12.5 μM, 1 hr) | mortality at 50 µM (1 h, read-out: % Mortality R1 + R2, Trial 1, contact assay, dose 50 μM, 1 hr) | mortality at 0.049 µM (1 h, read-out: % Mortality R1 + R2, Trial 2, contact assay, dose 0.049 μM, 1 hr) | mortality at 0.2 µM (1 h, read-out: % Mortality R1 + R2, Trial 2, contact assay, dose 0.20 μM, 1 hr) | mortality at 0.78 µM (1 h, read-out: % Mortality R1 + R2, Trial 2, contact assay, dose 0.78 μM, 1 hr) | mortality at 3.125 µM (1 h, read-out: % Mortality R1 + R2, Trial 2, contact assay, dose 3.125 μM, 1 hr) | mortality at 12.5 µM (1 h, read-out: % Mortality R1 + R2, Trial 2, contact assay, dose 12.5 μM, 1 hr) | mortality at 50 µM (1 h, read-out: % Mortality R1 + R2, Trial 2, contact assay, dose 50 μM, 1 hr) | mortality at 0.049 µM (6 h, read-out: % Mortality R1 + R2, Trial 1, contact assay, dose 0.049 μM, 6 hr) | mortality at 0.2 µM (6 h, read-out: % Mortality R1 + R2, Trial 1, contact assay, dose 0.20 μM, 6 hr) | mortality at 0.78 µM (6 h, read-out: % Mortality R1 + R2, Trial 1, contact assay, dose 0.78 μM, 6 hr) | mortality at 3.125 µM (6 h, read-out: % Mortality R1 + R2, Trial 1, contact assay, dose 3.125 μM, 6 hr) | mortality at 0.049 µM (6 h, read-out: % Mortality R1 + R2, Trial 2, contact assay, dose 0.049 μM, 6 hr) | mortality at 0.2 µM (6 h, read-out: % Mortality R1 + R2, Trial 2, contact assay, dose 0.20 μM, 6 hr) | mortality at 0.78 µM (6 h, read-out: % Mortality R1 + R2, Trial 2, contact assay, dose 0.78 μM, 6 hr) | mortality at 3.125 µM (6 h, read-out: % Mortality R1 + R2, Trial 2, contact assay, dose 3.125 μM, 6 hr) | mortality at 0.049 µM (12 h, read-out: % Mortality R1 + R2, Trial 1, contact assay, dose 0.049 μM, 12 hr) | mortality at 0.2 µM (12 h, read-out: % Mortality R1 + R2, Trial 1, contact assay, dose 0.20 μM, 12 hr) | mortality at 0.78 µM (12 h, read-out: % Mortality R1 + R2, Trial 1, contact assay, dose 0.78 μM, 12 hr) | mortality at 0.049 µM (12 h, read-out: % Mortality R1 + R2, Trial 2, contact assay, dose 0.049 μM, 12 hr) | mortality at 0.78 µM (12 h, read-out: % Mortality R1 + R2, Trial 2, contact assay, dose 0.78 μM, 12 hr) | mortality at 0.049 µM (24 h, read-out: % Mortality R1 + R2, Trial 1, contact assay, dose 0.049 μM, 24 hr) | mortality at 0.2 µM (24 h, read-out: % Mortality R1 + R2, Trial 1, contact assay, dose 0.20 μM, 24 hr) | mortality at 0.78 µM (24 h, read-out: % Mortality R1 + R2, Trial 1, contact assay, dose 0.78 μM, 24 hr) | mortality at 0.049 µM (24 h, read-out: % Mortality R1 + R2, Trial 2, contact assay, dose 0.049 μM, 24 hr) | mortality at 0.78 µM (24 h, read-out: % Mortality R1 + R2, Trial 2, contact assay, dose 0.78 μM, 24 hr) | mortality at 0.049 µM (48 h, read-out: % Mortality R1 + R2, Trial 1, contact assay, dose 0.049 μM, 48 hr) | mortality at 0.049 µM (48 h, read-out: % Mortality R1 + R2, Trial 2, contact assay, dose 0.049 μM, 48 hr)
20%: mortality at 3.125 µM (12 h, read-out: % Mortality R1 + R2, Trial 2, contact assay, dose 3.125 μM, 12 hr)
100%: mortality at 50 µM (6 h, read-out: % Mortality R1 + R2, Trial 1, contact assay, dose 50 μM, 6 hr) | mortality at 50 µM (6 h, read-out: % Mortality R1 + R2, Trial 2, contact assay, dose 50 μM, 6 hr) | mortality at 50 µM (12 h, read-out: % Mortality R1 + R2, Trial 1, contact assay, dose 50 μM, 12 hr) | mortality at 12.5 µM (12 h, read-out: % Mortality R1 + R2, Trial 2, contact assay, dose 12.5 μM, 12 hr) | mortality at 50 µM (12 h, read-out: % Mortality R1 + R2, Trial 2, contact assay, dose 50 μM, 12 hr) | mortality at 12.5 µM (24 h, read-out: % Mortality R1 + R2, Trial 1, contact assay, dose 12.5 μM, 24 hr) | mortality at 50 µM (24 h, read-out: % Mortality R1 + R2, Trial 1, contact assay, dose 50 μM, 24 hr) | mortality at 3.125 µM (24 h, read-out: % Mortality R1 + R2, Trial 2, contact assay, dose 3.125 μM, 24 hr) | mortality at 12.5 µM (24 h, read-out: % Mortality R1 + R2, Trial 2, contact assay, dose 12.5 μM, 24 hr) | mortality at 50 µM (24 h, read-out: % Mortality R1 + R2, Trial 2, contact assay, dose 50 μM, 24 hr) | mortality at 3.125 µM (48 h, read-out: % Mortality R1 + R2, Trial 1, contact assay, dose 3.125 μM, 48 hr) | mortality at 12.5 µM (48 h, read-out: % Mortality R1 + R2, Trial 1, contact assay, dose 12.5 μM, 48 hr) | mortality at 50 µM (48 h, read-out: % Mortality R1 + R2, Trial 1, contact assay, dose 50 μM, 48 hr) | mortality at 0.78 µM (48 h, read-out: % Mortality R1 + R2, Trial 2, contact assay, dose 0.78 μM, 48 hr) | mortality at 3.125 µM (48 h, read-out: % Mortality R1 + R2, Trial 2, contact assay, dose 3.125 μM, 48 hr) | mortality at 12.5 µM (48 h, read-out: % Mortality R1 + R2, Trial 2, contact assay, dose 12.5 μM, 48 hr) | mortality at 50 µM (48 h, read-out: % Mortality R1 + R2, Trial 2, contact assay, dose 50 μM, 48 hr)
